Assay results as given in patent US12398125B2, “Nitrogen-containing saturated heterocyclyl derivative” (Sumitomo Pharma Co., Ltd., priority 2022, dated 2025).

Key:
Assay type in all cases: cell-based
[1] = system: α-synuclein aggregate in neurospheroid prepared from human iPS cells with a mutation in PLA2G6 gene; experiment: Test 2: suppressing the accumulation of α-synuclein aggregate with neurospheroid; conditions: 120 h, DMSO = 100%, compound added day 4, measured day 9 after induction of differentiation; for activity at 0.1 µM: 100 nM, read-out: Amount of aggregate (%) 100 nM; for activity at 1 µM: 1000 nM, read-out: Amount of aggregate (%) 1000 nM
Method: Test 2: Evaluation of Suppressing the Accumulation of α-Synuclein Aggregate with Neurospheroid Prepared from Human iPS Cells with a Mutation in PLA2G6 Gene
(§1) (1) Induction of Differentiation from Human iPS Cell to Neural Cell
Neural stem cells were induced from PLA2G6 gene mutant iPS cells with PSC Neuronal Induction Medium (Thermo Fisher Scientific Inc., cat #A1647801). Neurospheroid was prepared from the induced neural stem cells by three-dimensional culture system, and preserved with BrainPhys Neuronal Medium (STEMCELL Technologies, cat #ST-05793) comprising NeuroCult SM1 Neuronal Supplement, N2 Supplement-A, 20 ng/mL BDNF, 20 ng/mL GDNF, 1 mM dibutyryl cAMP, and 200 nM ascorbic acid. Half of the culture medium was replaced on day 2 and day 4 after the induction of differentiation.
The test compound was diluted with the culture medium so as to be twice the final concentration, and an equal volume of the twice-concentrated solution was added to each well when half of the culture medium was replaced on day 4 after induction of differentiation.
(§2) (2) Evaluation of the Amount of α-Synuclein Aggregate
(§3) From the neurospheroid 9 days after the induction of differentiation, proteins were extracted with a TBS solution containing 1% TritionX-100, and the extracted proteins were subjected to a protein analysis with Simple Western system (Protein Simple, Inc., cat #SM-W008) using an α-synuclein antibody (Thermo Fisher Scientific Inc., cat #AHB0261) to measure the amount of the α-synuclein aggregate.
Assuming that the amount of the aggregate in the neurospheroid added with a DMSO solution is 100%, the amount of the aggregate in the neurospheroid added with each test compound was evaluated.

[2] = system: α-synuclein aggregate in dopamine neurospheroid prepared from human iPS cells with a mutation in GBA1 gene; experiment: Test 11: reducing the accumulation of α-synuclein aggregate with dopamine neurospheroid; conditions: DMSO = 100%, compound added day 40, measured day 44, GBA1 mutant
Method: Test 11: Evaluation of Reducing the Accumulation of α-Synuclein Aggregate with Dopamine Neurospheroid Prepared from Human iPS Cells with a Mutation in GBA1 Gene
as §1
(§4) Dopaminergic progenitor cells were induced from GBA1 gene mutant iPS cells with dopaminergic neuron differentiation kit (Thermo Fisher Scientific Inc., cat #A3147701). Dopamine neurospheroid was prepared from the induced dopaminergic progenitor cells by three-dimensional culture system, and preserved with BrainPhys Neuronal Medium (STEMCELL Technologies, cat #ST-05793) comprising NeuroCult SM1 Neuronal Supplement, N2 Supplement-A, 20 ng/mL BDNF, 20 ng/mL GDNF, 1 mM dibutyryl cAMP, and 200 nM ascorbic acid. Half of the culture medium was replaced every 3 or 4 days.
The test compound was diluted with the culture medium so as to be twice the final concentration, and an equal volume of the twice-concentrated solution was added to each well when half of the culture medium was replaced on day 40 after induction of differentiation.
as §2
as §3, with “From the dopamine neurospheroid 44” for “From the neurospheroid 9”, “dopamine neurospheroid 44 days after” for “the neurospheroid 9 days after”
(§5) The amount of the aggregate in the neurospheroid added with each test compound was measured. Assuming that the amount of the aggregate in the neurospheroid added with a DMSO solution is 100%, the amount of the aggregate in the test samples was evaluated.

[3] = system: α-synuclein aggregate in dopamine neurospheroid prepared from human iPS cells with a mutation in PLA2G6 gene; experiment: Test 5: suppressing the accumulation of α-synuclein aggregate with dopamine neurospheroid; conditions: 120 h, DMSO = 100%, compound added day 21, measured day 26, PLA2G6 mutant; for activity at 0.1 µM: 100 nM, read-out: Amount of aggregate (%) 100 nM; for activity at 1 µM: 1000 nM, read-out: Amount of aggregate (%) 1000 nM
Method: Test 5: Evaluation of Suppressing the Accumulation of α-Synuclein Aggregate with Dopamine Neurospheroid Prepared from Human iPS Cells with a Mutation in PLA2G6 Gene
as §1
as §4, with “PLA2G6” for “GBA1”, “days after the induction of differentiation.” for “days.”
The test compound was diluted with the culture medium so as to be twice the final concentration, and an equal volume of the twice-concentrated solution was added to each well when half of the culture medium was replaced on day 21 after induction of differentiation.
as §2
as §3, with “From the dopamine neurospheroid 26” for “From the neurospheroid 9”, “dopamine neurospheroid 26 days after” for “the neurospheroid 9 days after”
as §5

[4] = system: α-synuclein aggregate in neurospheroid prepared from human iPS cells with a mutation in PLA2G6 gene; experiment: Test 3: reducing the accumulation of α-synuclein aggregate with neurospheroid; conditions: 120 h, DMSO = 100%, compound added day 10, measured day 15 after induction of differentiation; for activity at 0.1 µM: 100 nM, read-out: Amount of aggregate (%) 100 nM; for activity at 1 µM: 1000 nM, read-out: Amount of aggregate (%) 1000 nM
Method: Test 3: Evaluation of Reducing the Accumulation of α-Synuclein Aggregate with Neurospheroid Prepared from Human iPS Cells with a Mutation in PLA2G6 Gene (1) Induction of Differentiation from Human iPS Cell to Neural Cell
Neural stem cells were induced from PLA2G6 gene mutant iPS cells with PSC Neuronal Induction Medium (Thermo Fisher Scientific Inc., cat #A1647801). Neurospheroid was prepared from the induced neural stem cells by three-dimensional culture system, and preserved with BrainPhys Neuronal Medium (STEMCELL Technologies, cat #ST-05793) comprising NeuroCult SM1 Neuronal Supplement, N2 Supplement-A, 20 ng/mL BDNF, 20 ng/mL GDNF, 1 mM dibutyryl cAMP, and 200 nM ascorbic acid. Half of the culture medium was replaced every 3 or 4 days after the induction of differentiation.
The test compound was diluted with the culture medium so as to be twice the final concentration, and an equal volume of the twice-concentrated solution was added to each well when half of the culture medium was replaced on day 10 after induction of differentiation.
as §2
as §3, with “15” for “9”
as §5

Compound	activity at 0.1 µM [1] [%]	activity at 1 µM [1] [%]	Amount of aggregate (%) 100 nM [2] [%]	Amount of aggregate (%) 1000 nM [2] [%]	activity at 0.1 µM [3] [%]	activity at 1 µM [3] [%]	activity at 0.1 µM [4] [%]	activity at 1 µM [4] [%]
CC1(C(=O)N2CCC(c3ccc(C(F)(F)F)nc3)CC2)COC1 [Example 1, (3-Methyloxetan-3-yl){4-[6-(trifluoromethyl)pyridin-3-yl]piperidin-1-yl}methanone]	14	16	23	14	17	21	20	30
CC1(C(=O)N2CCC(c3cncc(C(F)(F)F)c3)CC2)COC1 [Example 2, (3-methyloxetan-3-yl){4-[5-(trifluoromethyl)pyridin-3-yl]piperidin-1-yl}methanone]	9	1	21	20	16	7	20	17
CCC1(C(=O)N2CCC(c3ccc(C(F)(F)F)nc3)CC2)COC1 [Example 5]	22	90			14	18	22	70
CC1(C(=O)N2CCC(c3ccc(C(F)(F)F)cn3)CC2)COC1 [Example 9]	8	50			18	23	10	20
CC1(C(=O)N2CCC(c3cnc(C(F)(F)F)c(F)c3)CC2)COC1 [Example 29, {4-[5-fluoro-6-(trifluoromethyl)pyridin-3-yl]piperidin-1-yl}(3-methyloxetan-3-yl)methanone]	24	14			9	8	42	60
CCC1(C(=O)N2CCC(c3cnc(C(F)(F)F)cc3C)CC2)COC1 [Example 32]	18	5			3	0	29	96
CC1(C(=O)N2CCC(c3cnccc3C(F)(F)F)CC2)CNC1 [Example 35]	28	28			27	38	16	19
CN1CC(C)(C(=O)N2CCC(c3cccnc3C(F)(F)F)CC2)C1 [Example 42, (1,3-dimethylazetidin-3-yl){4-[2-(trifluoromethyl)pyridin-3-yl]piperidin-1-yl}methanone]	27	9	18	8	17	11	28	45
CN1CC(C)(C(=O)N2CCC(c3cncc(C(F)(F)F)c3)CC2)C1 [Example 44, (1,3-dimethylazetidin-3-yl){4-[5-(trifluoromethyl)pyridin-3-yl]piperidin-1-yl}methanone]	20	0	20	24	18	26	15	16
CN1CC(C)(C(=O)N2CCC(c3ccc(C(F)(F)F)cn3)CC2)C1 [Example 45]	9	4			17	8	46	76
CC1(C(=O)N2CCC(c3cccnc3C(F)(F)F)CC2)CN(CC(F)(F)F)C1 [Example 66, [3-Methyl-1-(2,2,2-trifluoroethyl)azetidin-3-yl]{4-[2-(trifluoromethyl)pyridin-3-yl]piperidin-1-yl}methanone]	30	77						
CC1(C(=O)N2CCC(c3cccnc3C(F)(F)F)CC2)CN(C2CC2)C1 [Example 67, (1-Cyclopropyl-3-methylazetidin-3-yl){4-[2-(trifluoromethyl)pyridin-3-yl]piperidin-1-yl}methanone]	82	64						
